Reference: PubChem BioAssay AID1963826 (Molecular Pharmacology Branch, DTP, NCI, 2024)
pIC50: −log10 of the molar value.

System: 926638-142-R-J1-PDC complex spheroid viability
Experiment: Anticancer human tumor 926638-142-R-J1-PDC patient-derived endometrial carcinoma cell line growth inhibition [POLQ]
Conditions: for pIC50: curve of first compound; for viability, T/C: stronger effect = lower value
In short: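 Growth inhibition in 3D: complex spheroids (tumor PDC, HUVEC, MSC) treated with POLQ inhibitor combinations; where Cmax unknown, highest tested concentration 10 microM, except SN-38 at 1 microM.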

[1] = second compound 0.0316 µM, first compound 0.0316 µM
[2] = second compound 0.0316 µM, first compound 0.1 µM
[3] = second compound 0.0316 µM, first compound 0.316 µM
[4] = second compound 0.0316 µM, first compound 1 µM
[5] = second compound 0.1 µM, first compound 0.0316 µM
[6] = second compound 0.1 µM, first compound 0.1 µM
[7] = second compound 0.1 µM, first compound 0.316 µM
[8] = second compound 0.1 µM, first compound 1 µM
[9] = second compound 0.316 µM, first compound 0.0316 µM
[10] = second compound 0.316 µM, first compound 0.1 µM
[11] = second compound 0.316 µM, first compound 0.316 µM
[12] = second compound 0.316 µM, first compound 1 µM
[13] = second compound 1 µM, first compound 0.0316 µM
[14] = second compound 1 µM, first compound 0.1 µM
[15] = second compound 1 µM, first compound 0.316 µM
[16] = second compound 1 µM, first compound 1 µM
[17] = second compound 3.16 µM, first compound 0.0316 µM
[18] = second compound 3.16 µM, first compound 0.1 µM
[19] = second compound 3.16 µM, first compound 0.316 µM
[20] = second compound 3.16 µM, first compound 1 µM
[21] = second compound 10 µM, first compound 0.0316 µM
[22] = second compound 10 µM, first compound 0.1 µM
[23] = second compound 10 µM, first compound 0.316 µM
[24] = second compound 10 µM, first compound 1 µM
[25] = second compound 0.0316 µM, first compound 3.16 µM
[26] = second compound 0.0316 µM, first compound 10 µM
[27] = second compound 0.1 µM, first compound 3.16 µM
[28] = second compound 0.1 µM, first compound 10 µM
[29] = second compound 0.316 µM, first compound 3.16 µM
[30] = second compound 0.316 µM, first compound 10 µM
[31] = second compound 1 µM, first compound 3.16 µM
[32] = second compound 1 µM, first compound 10 µM
[33] = second compound 3.16 µM, first compound 3.16 µM
[34] = second compound 3.16 µM, first compound 10 µM
[35] = second compound 10 µM, first compound 3.16 µM
[36] = second compound 10 µM, first compound 10 µM
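Also: spheroids exposed to drugs for one week before readout.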
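For viability, T/C in this document: percent viability relative to DMSO vehicle control wells set as 100%.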

Molecule `C=CCn1c(=O)c2cnc(Nc3ccc(N4CCN(C)CC4)cc3)nc2n1-c1cccc(C(C)(C)O)n1` + Cc1cccc(N(C)C(=O)C2C(O)CCN2c2nc(C)cc(C(F)(F)F)c2C#N)c1 has a pIC50 (second compound 0.0316 µM) of 6.41, a pIC50 (second compound 0.1 µM) of 6.15 and a pIC50 (second compound 0.316 µM) of 6.49. For the same molecule, the pIC50 (second compound 1 µM) was 6.20, the pIC50 (second compound 3.16 µM) was 6.43 and the pIC50 (second compound 10 µM) was 6.56. The viability, T/C (second compound 0.0316 µM, first compound 0.00316 µM) was 92%, the viability, T/C (second compound 0.0316 µM, first compound 0.01 µM) was 80.1% and the viability, T/C [1] was 90%. The viability, T/C [2] was 64.9%, the viability, T/C [3] was 55.6% and the viability, T/C [4] was 34%. It also gave a viability, T/C (second compound 0.1 µM, first compound 0.00316 µM) of 106%, a viability, T/C (second compound 0.1 µM, first compound 0.01 µM) of 98.3% and a viability, T/C [5] of 88.7%. It also gave a viability, T/C [6] of 77.2%, a viability, T/C [7] of 57.8% and a viability, T/C [8] of 46.6%. It also gave a viability, T/C (second compound 0.316 µM, first compound 0.00316 µM) of 102%, a viability, T/C (second compound 0.316 µM, first compound 0.01 µM) of 94.4% and a viability, T/C [9] of 71.6%. The viability, T/C [10] was 61.2%, the viability, T/C [11] was 54.7% and the viability, T/C [12] was 37%. For the same molecule, the viability, T/C (second compound 1 µM, first compound 0.00316 µM) was 109%, the viability, T/C (second compound 1 µM, first compound 0.01 µM) was 91.5% and the viability, T/C [13] was 76.1%. The viability, T/C [14] was 81.1%, the viability, T/C [15] was 60.8% and the viability, T/C [16] was 40.8%. It also gave a viability, T/C (second compound 3.16 µM, first compound 0.00316 µM) of 87.7%, a viability, T/C (second compound 3.16 µM, first compound 0.01 µM) of 99.6% and a viability, T/C [17] of 81.2%. For the same molecule, the viability, T/C [18] was 78.8%, the viability, T/C [19] was 51.1% and the viability, T/C [20] was 36.9%. It also gave a viability, T/C (second compound 10 µM, first compound 0.00316 µM) of 79.5%, a viability, T/C (second compound 10 µM, first compound 0.01 µM) of 78.9% and a viability, T/C [21] of 72.8%. For the same molecule, the viability, T/C [22] was 76.2%, the viability, T/C [23] was 46.5% and the viability, T/C [24] was 37.7%.

`COc1cc2cc(C(=O)CCC(=O)O)sc2cc1OC` + COC1C(OC(N)=O)C(O)C(Oc2ccc3c(O)c(NC(=O)c4ccc(O)c(CC=C(C)C)c4)c(=O)oc3c2C)OC1(C)C was tested, and the pIC50 (second compound 0.0316 µM) was under 5.00, the pIC50 (second compound 0.1 µM) was under 5.00 and the pIC50 (second compound 0.316 µM) was under 5.00. The pIC50 (second compound 1 µM) was under 5.00, the pIC50 (second compound 3.16 µM) was under 5.00 and the pIC50 (second compound 10 µM) was under 5.00. For the same molecule, the viability, T/C [1] was 93.6%, the viability, T/C [2] was 98.3% and the viability, T/C [3] was 87.9%. It also gave a viability, T/C [4] of 106%, a viability, T/C [25] of 99.6% and a viability, T/C [26] of 104%. For the same molecule, the viability, T/C [5] was 85.9%, the viability, T/C [6] was 97.5% and the viability, T/C [7] was 98.2%. The viability, T/C [8] was 86.4%, the viability, T/C [27] was 94.3% and the viability, T/C [28] was 101%. It also gave a viability, T/C [9] of 105%, a viability, T/C [10] of 113% and a viability, T/C [11] of 88.1%. It also gave a viability, T/C [12] of 110%, a viability, T/C [29] of 91.6% and a viability, T/C [30] of 110%. The viability, T/C [13] was 86.7%, the viability, T/C [14] was 93% and the viability, T/C [15] was 94.5%. The viability, T/C [16] was 97.9%, the viability, T/C [31] was 97.7% and the viability, T/C [32] was 111%. For the same molecule, the viability, T/C [17] was 99.2%, the viability, T/C [18] was 101% and the viability, T/C [19] was 103%. For the same molecule, the viability, T/C [20] was 89.3%, the viability, T/C [33] was 81.1% and the viability, T/C [34] was 75.1%. For the same molecule, the viability, T/C [21] was 98.4%, the viability, T/C [22] was 109% and the viability, T/C [23] was 102%. The viability, T/C [24] was 106%, the viability, T/C [35] was 81.1% and the viability, T/C [36] was 99.7%.

`COc1cccc2c1C(=O)c1c(O)c3c(c(O)c1C2=O)CC(O)(C(=O)CO)CC3OC1CC(N)C(O)C(C)O1` (stereo unspecified) + COC1C(OC(N)=O)C(O)C(Oc2ccc3c(O)c(NC(=O)c4ccc(O)c(CC=C(C)C)c4)c(=O)oc3c2C)OC1(C)C gave a pIC50 (second compound 0.0316 µM) of 7.03, a pIC50 (second compound 0.1 µM) of 6.78 and a pIC50 (second compound 0.316 µM) of 6.89. The pIC50 (second compound 1 µM) was 6.89, the pIC50 (second compound 3.16 µM) was 6.88 and the pIC50 (second compound 10 µM) was 6.81. For the same molecule, the viability, T/C [1] was 73.2%, the viability, T/C [2] was 48.3% and the viability, T/C [3] was 17.7%. For the same molecule, the viability, T/C [4] was 1.39%, the viability, T/C [25] was 0.18% and the viability, T/C [26] was 0.28%. The viability, T/C [5] was 81%, the viability, T/C [6] was 74.1% and the viability, T/C [7] was 19.9%. It also gave a viability, T/C [8] of 3.56%, a viability, T/C [27] of 0.18% and a viability, T/C [28] of 0.25%. For the same molecule, the viability, T/C [9] was 81.6%, the viability, T/C [10] was 59.9% and the viability, T/C [11] was 15.9%. The viability, T/C [12] was 1.61%, the viability, T/C [29] was 0.22% and the viability, T/C [30] was 0.17%. The viability, T/C [13] was 72.9%, the viability, T/C [14] was 59.8% and the viability, T/C [15] was 14%. The viability, T/C [16] was 2.68%, the viability, T/C [31] was 0.17% and the viability, T/C [32] was 0.21%. It also gave a viability, T/C [17] of 74.3%, a viability, T/C [18] of 61.1% and a viability, T/C [19] of 16.2%. The viability, T/C [20] was 3.97%, the viability, T/C [33] was 0.21% and the viability, T/C [34] was 0.21%. It also gave a viability, T/C [21] of 90.7%, a viability, T/C [22] of 69% and a viability, T/C [23] of 18%. It also gave a viability, T/C [24] of 2.23%, a viability, T/C [35] of 0.25% and a viability, T/C [36] of 0.26%.
